Data as given in ChEMBL document CHEMBL2034964, “Investigation of the binding pocket of human hematopoietic prostaglandin (PG) D2 synthase (hH-PGDS): a tale of two waters” (Bioorg Med Chem Lett, 2012).

What was measured:
[1] = molecular target: T1, Hematopoietic prostaglandin D synthase (Homo sapiens, UniProt O60760); assay: Inhibition of human recombinant HPGDS using PGH2 as substrate assessed as production of PGD2 preincubated for 10 mins prior substrate addition measured after 42 secs by TBA-based fluorescence assay
T1 sequence (O60760 whole entry): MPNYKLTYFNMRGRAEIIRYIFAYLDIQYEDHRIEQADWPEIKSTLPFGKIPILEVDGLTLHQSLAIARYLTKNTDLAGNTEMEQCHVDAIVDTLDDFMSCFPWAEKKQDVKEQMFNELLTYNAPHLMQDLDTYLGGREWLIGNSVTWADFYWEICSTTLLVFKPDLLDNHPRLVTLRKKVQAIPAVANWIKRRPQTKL

[2] = (§1) Metabolic stability in human liver microsomes assessed as compound remaining after 30 mins; assay type: ADME, Microsome; conditions: liver microsomes, read-out: Stability
[3] = molecular target: T1, Hematopoietic prostaglandin D synthase; assay: Inhibition of HPGDS
Liver microsomes [4] = assay: Half life in human liver microsomes; assay type: ADME, Microsome
[5] = molecular target: ERG (KCNH2 potassium channel) (Homo sapiens, UniProt Q12809); assay: Displacement of dofetilide from ERG at 10 uM; conditions: probe dofetilide
Chain of ERG (KCNH2 potassium channel) (Q12809 whole entry): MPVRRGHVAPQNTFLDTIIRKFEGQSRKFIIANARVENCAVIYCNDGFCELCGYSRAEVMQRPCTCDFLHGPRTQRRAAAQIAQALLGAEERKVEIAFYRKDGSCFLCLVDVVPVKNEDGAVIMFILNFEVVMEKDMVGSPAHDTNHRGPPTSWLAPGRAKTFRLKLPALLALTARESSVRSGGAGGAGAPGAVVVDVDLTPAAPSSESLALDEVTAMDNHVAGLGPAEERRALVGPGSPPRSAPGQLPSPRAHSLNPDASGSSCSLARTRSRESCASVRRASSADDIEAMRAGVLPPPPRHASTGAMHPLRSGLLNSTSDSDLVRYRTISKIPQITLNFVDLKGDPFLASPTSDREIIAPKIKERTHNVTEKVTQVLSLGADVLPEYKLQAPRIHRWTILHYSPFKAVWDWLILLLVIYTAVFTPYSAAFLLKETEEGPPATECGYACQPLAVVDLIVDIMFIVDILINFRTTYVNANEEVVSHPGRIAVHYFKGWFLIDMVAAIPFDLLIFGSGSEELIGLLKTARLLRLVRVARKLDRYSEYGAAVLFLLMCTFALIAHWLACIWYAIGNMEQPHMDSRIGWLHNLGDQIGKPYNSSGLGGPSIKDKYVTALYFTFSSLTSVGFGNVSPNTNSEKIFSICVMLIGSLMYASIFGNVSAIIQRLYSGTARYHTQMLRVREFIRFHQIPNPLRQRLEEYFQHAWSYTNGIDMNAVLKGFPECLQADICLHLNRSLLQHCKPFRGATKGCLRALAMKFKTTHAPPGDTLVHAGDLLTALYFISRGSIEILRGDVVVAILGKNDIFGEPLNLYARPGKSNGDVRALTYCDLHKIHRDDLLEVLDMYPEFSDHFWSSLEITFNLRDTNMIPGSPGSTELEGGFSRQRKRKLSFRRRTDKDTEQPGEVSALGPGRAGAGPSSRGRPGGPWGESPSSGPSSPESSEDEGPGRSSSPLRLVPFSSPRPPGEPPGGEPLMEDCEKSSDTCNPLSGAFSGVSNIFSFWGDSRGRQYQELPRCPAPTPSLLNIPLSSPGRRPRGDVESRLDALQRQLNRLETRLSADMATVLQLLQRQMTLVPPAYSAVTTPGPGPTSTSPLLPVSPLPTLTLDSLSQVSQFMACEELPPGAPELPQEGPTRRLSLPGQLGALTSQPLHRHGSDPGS

Liver microsomes [6] = assay: as §1; assay type: ADME, Microsome; conditions: microsomes, 0.5 h

Row | Compound | remaining at 0.5 h [2] [%] | IC50 [3] [nM] | other results
1 | O=C(NCCN1CCOCC1)c1ccc(-c2c(O)ccc3ccccc23)cc1 | 94 | – | IC50 [1]: 662 nM
2 | O=C(NC1CCN(CC(F)(F)F)CC1)c1ccc(-c2ccccc2)nc1 | – | 0.2 | –
3 | O=C(NCCN1CCOCC1)c1ccc(-c2nccc3ccccc23)cc1 | – | – | t1/2 (Liver microsomes [4]): 1 h; inhibition at 10 µM [5]: 3%; Stability (Liver microsomes [6]): 90%
4 | O=C(NCCN1CCOCC1)c1ccc(-c2ccccn2)cc1 | 20 | – | IC50 [1]: 274 nM
5 | COc1ccccc1N1CCN(C(=O)c2ccc[nH]2)CC1 | – | 6900 | –
6 | Cc1cc2ccccc2c(-c2ccc(C(=O)NCCN3CCOCC3)cc2)n1 | 76 | – | –
7 | Cc1nc(-c2ccccc2)sc1C(=O)Nc1ccc(S(N)(=O)=O)cc1 | – | < 1 | –
8 | O=C(Nc1ccc(N2CCN(C(=O)N3CCOCC3)CC2)cc1)c1cnc(Oc2ccccc2)nc1 | – | 280 | –
